In US20230295197A1, “STAT5 and STAT6 Degraders and Uses Thereof” (REGENTS OF THE UNIVERSITY OF MICHICAN, priority 2022, published 2023) one finds DC50 data, which are given here for nine compounds.

For orientation: DC50 means the midpoint of the concentration-degradation curve.

The target in this experiment is T1, STAT6 (Homo sapiens, UniProt P42226).
T1 construct: endogenous in cells; host or cells: MOLM-16, KU-812, SKNO1, MB231, L1236
T1 sequence (P42226 1-847): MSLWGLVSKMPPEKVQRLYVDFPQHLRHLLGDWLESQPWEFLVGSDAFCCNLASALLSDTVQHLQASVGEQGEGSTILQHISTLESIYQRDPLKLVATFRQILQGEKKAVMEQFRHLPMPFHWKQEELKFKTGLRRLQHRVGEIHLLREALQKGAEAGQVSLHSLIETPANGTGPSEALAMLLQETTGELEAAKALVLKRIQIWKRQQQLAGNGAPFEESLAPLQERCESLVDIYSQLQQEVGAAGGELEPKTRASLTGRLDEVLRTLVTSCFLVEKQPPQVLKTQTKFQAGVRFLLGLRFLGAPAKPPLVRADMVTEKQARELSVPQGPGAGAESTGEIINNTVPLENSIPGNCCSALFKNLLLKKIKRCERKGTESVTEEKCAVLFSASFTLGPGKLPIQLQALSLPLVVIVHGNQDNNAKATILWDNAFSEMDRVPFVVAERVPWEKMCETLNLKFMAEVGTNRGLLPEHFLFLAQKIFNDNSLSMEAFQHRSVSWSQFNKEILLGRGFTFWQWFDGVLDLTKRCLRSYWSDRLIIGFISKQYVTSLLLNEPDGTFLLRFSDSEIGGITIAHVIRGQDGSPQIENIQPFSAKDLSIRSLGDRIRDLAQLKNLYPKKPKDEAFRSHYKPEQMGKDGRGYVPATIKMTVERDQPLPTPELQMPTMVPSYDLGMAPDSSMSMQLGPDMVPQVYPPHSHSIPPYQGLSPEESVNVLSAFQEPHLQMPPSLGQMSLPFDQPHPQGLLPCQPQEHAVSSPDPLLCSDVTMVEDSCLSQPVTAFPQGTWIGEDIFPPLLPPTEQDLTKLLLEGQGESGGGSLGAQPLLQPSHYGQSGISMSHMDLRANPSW
Nature of the experiment: Immunoblotting (Western blot) analysis of STAT6 degradation efficiency of degraders in treated cells. The format is cell-based. The method, boiled down: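 Each data point uses roughly one million cells dosed as indicated; pellets are lysed on ice, freeze-thawed, and clarified. Reduced, denatured samples (95 °C, 5 min) run on SDS gels, then membranes receive rabbit mAbs to STAT5 or STAT6 plus mouse anti-GAPDH overnight, followed by dye-labelled secondaries for fluorescence imaging.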
In general terms: A western blot detects proteins with antibodies after separation by electrophoresis.

[1] abbreviates: L1236 cells, read-out: DC50 S6 L1236.
Setting [2] is: MOLM-16 cells, class symbols, read-out: DC50 S6 MOLM-16.

Where two headings read alike, the source gives them in different places.

Regarding `Cc1ncsc1-c1ccc([C@H](C)NC(=O)[C@@H]2C[C@@H](O)CN2C(=O)[C@@H](NC(=O)CCCCNC(=O)COc2ccc3c(c2)CN(C(=O)[C@@H](NC(=O)c2cc4cc(C(F)(F)P(=O)(O)O)ccc4s2)C(C)(C)C)[C@H](C(=O)N2CCO[C@H](c4ccccc4)C2)C3)C(C)(C)C)cc1` [Compound 464, (difluoro(2-(((S)-1-((S)-7-(2-((5-(((S)-1-((2S,4R)-4-hydroxy-2-(((S)-1-(4-(4-methylthiazol-5-yl)phenyl)ethyl)carbamoyl)pyrrolidin-1-yl)-3,3-dimethyl-1-oxobutan-2-yl)amino)-5-oxopentyl)amino)-2-oxoethoxy)-3-((R)-2-phenylmorpholine-4-carbonyl)-3,4-dihydroisoquinolin-2(1H)-yl)-3,3-dimethyl-1-oxobutan-2-yl)carbamoyl)benzo[b]thiophen-5-yl)methyl)phosphonic acid], the DC50 under setting [1] was over 10 µM and the 50% degradation concentration (DC50) under setting [2] was over 10 µM. With `Cc1ncsc1-c1ccc([C@H](C)NC(=O)[C@@H]2C[C@@H](O)CN2C(=O)[C@@H](NC(=O)CCCCCNC(=O)COc2ccc3c(c2)CN(C(=O)[C@@H](NC(=O)c2cc4cc(C(F)(F)P(=O)(O)O)ccc4s2)C(C)(C)C)[C@H](C(=O)N2CCO[C@H](c4ccccc4)C2)C3)C(C)(C)C)cc1` [Compound 465, (difluoro(2-(((S)-1-((S)-7-(2-((6-(((S)-1-((2S,4R)-4-hydroxy-2-(((S)-1-(4-(4-methylthiazol-5-yl)phenyl)ethyl)carbamoyl)pyrrolidin-1-yl)-3,3-dimethyl-1-oxobutan-2-yl)amino)-6-oxohexyl)amino)-2-oxoethoxy)-3-((R)-2-phenylmorpholine-4-carbonyl)-3,4-dihydroisoquinolin-2(1H)-yl)-3,3-dimethyl-1-oxobutan-2-yl)carbamoyl)benzo[b]thiophen-5-yl)methyl)phosphonic acid], the DC50 runs as follows: under setting [1], over 10 µM; under setting [2], over 10 µM. For `Cc1ncsc1-c1ccc([C@H](C)NC(=O)[C@@H]2C[C@@H](O)CN2C(=O)[C@@H](NC(=O)CCCCCCNC(=O)COc2ccc3c(c2)CN(C(=O)[C@@H](NC(=O)c2cc4cc(C(F)(F)P(=O)(O)O)ccc4s2)C(C)(C)C)[C@H](C(=O)N2CCO[C@H](c4ccccc4)C2)C3)C(C)(C)C)cc1` [Compound 466, (difluoro(2-(((S)-1-((S)-7-(2-((7-(((S)-1-((2S,4R)-4-hydroxy-2-(((S)-1-(4-(4-methylthiazol-5-yl)phenyl)ethyl)carbamoyl)pyrrolidin-1-yl)-3,3-dimethyl-1-oxobutan-2-yl)amino)-7-oxoheptyl)amino)-2-oxoethoxy)-3-((R)-2-phenylmorpholine-4-carbonyl)-3,4-dihydroisoquinolin-2(1H)-yl)-3,3-dimethyl-1-oxobutan-2-yl)carbamoyl)benzo[b]thiophen-5-yl)methyl)phosphonic acid], the half-maximal degradation concentration (DC50) under setting [1] is over 10 µM and the DC50 under setting [2] was over 10 µM. As to `Cc1ncsc1-c1ccc([C@H](C)NC(=O)[C@@H]2C[C@@H](O)CN2C(=O)[C@@H](NC(=O)CCCCCCCNC(=O)COc2ccc3c(c2)CN(C(=O)[C@@H](NC(=O)c2cc4cc(C(F)(F)P(=O)(O)O)ccc4s2)C(C)(C)C)[C@H](C(=O)N2CCO[C@H](c4ccccc4)C2)C3)C(C)(C)C)cc1` [Compound 467, (difluoro(2-(((S)-1-((S)-7-(2-((8-(((S)-1-((2S,4R)-4-hydroxy-2-(((S)-1-(4-(4-methylthiazol-5-yl)phenyl)ethyl)carbamoyl)pyrrolidin-1-yl)-3,3-dimethyl-1-oxobutan-2-yl)amino)-8-oxooctyl)amino)-2-oxoethoxy)-3-((R)-2-phenylmorpholine-4-carbonyl)-3,4-dihydroisoquinolin-2(1H)-yl)-3,3-dimethyl-1-oxobutan-2-yl)carbamoyl)benzo[b]thiophen-5-yl)methyl)phosphonic acid], the half-maximal degradation concentration (DC50) by setting is: under setting [1], over 10 µM; under setting [2], over 10 µM.

For the compound `Cc1ncsc1-c1ccc([C@H](C)NC(=O)[C@@H]2C[C@@H](O)CN2C(=O)[C@@H](NC(=O)CCCCCCCCNC(=O)COc2ccc3c(c2)CN(C(=O)[C@@H](NC(=O)c2cc4cc(C(F)(F)P(=O)(O)O)ccc4s2)C(C)(C)C)[C@H](C(=O)N2CCO[C@H](c4ccccc4)C2)C3)C(C)(C)C)cc1` [Compound 468, (difluoro(2-(((S)-1-((S)-7-(2-((9-(((S)-1-((2S,4R)-4-hydroxy-2-(((S)-1-(4-(4-methylthiazol-5-yl)phenyl)ethyl)carbamoyl)pyrrolidin-1-yl)-3,3-dimethyl-1-oxobutan-2-yl)amino)-9-oxononyl)amino)-2-oxoethoxy)-3-((R)-2-phenylmorpholine-4-carbonyl)-3,4-dihydroisoquinolin-2(1H)-yl)-3,3-dimethyl-1-oxobutan-2-yl)carbamoyl)benzo[b]thiophen-5-yl)methyl)phosphonic acid], the DC50 is over 10 µM under setting [1] and over 10 µM under setting [2]. As to `Cc1ncsc1-c1ccc([C@H](C)NC(=O)[C@@H]2C[C@@H](O)CN2C(=O)[C@@H](NC(=O)CCCCCCCCCNC(=O)COc2ccc3c(c2)CN(C(=O)[C@@H](NC(=O)c2cc4cc(C(F)(F)P(=O)(O)O)ccc4s2)C(C)(C)C)[C@H](C(=O)N2CCO[C@H](c4ccccc4)C2)C3)C(C)(C)C)cc1` [Compound 469, (difluoro(2-(((S)-1-((S)-7-(2-((10-(((S)-1-((2S,4R)-4-hydroxy-2-(((S)-1-(4-(4-methylthiazol-5-yl)phenyl)ethyl)carbamoyl)pyrrolidin-1-yl)-3,3-dimethyl-1-oxobutan-2-yl)amino)-10-oxodecyl)amino)-2-oxoethoxy)-3-((R)-2-phenylmorpholine-4-carbonyl)-3,4-dihydroisoquinolin-2(1H)-yl)-3,3-dimethyl-1-oxobutan-2-yl)carbamoyl)benzo[b]thiophen-5-yl)methyl)phosphonic acid], the half-maximal degradation concentration (DC50) under setting [1] was over 10 µM and the 50% degradation concentration (DC50) under setting [2] was over 10 µM. With `Cc1ncsc1-c1ccc([C@H](C)NC(=O)[C@@H]2C[C@@H](O)CN2C(=O)[C@@H](NC(=O)CNC(=O)COc2ccc3c(c2)CN(C(=O)[C@@H](NC(=O)c2cc4cc(C(F)(F)P(=O)(O)O)ccc4s2)C(C)(C)C)[C@H](C(=O)N2CCC[C@H](c4ccccc4)C2)C3)C(C)(C)C)cc1` [Compound 470, (difluoro(2-(((S)-1-((S)-7-(2-((2-(((S)-1-((2S,4R)-4-hydroxy-2-(((S)-1-(4-(4-methylthiazol-5-yl)phenyl)ethyl)carbamoyl)pyrrolidin-1-yl)-3,3-dimethyl-1-oxobutan-2-yl)amino)-2-oxoethyl)amino)-2-oxoethoxy)-3-((R)-3-phenylpiperidine-1-carbonyl)-3,4-dihydroisoquinolin-2(1H)-yl)-3,3-dimethyl-1-oxobutan-2-yl)carbamoyl)benzo[b]thiophen-5-yl)methyl)phosphonic acid], under setting [2], the DC50 is over 10 µM. Still for that read-out and setting: under `Cc1ncsc1-c1ccc([C@H](C)NC(=O)[C@@H]2C[C@@H](O)CN2C(=O)[C@@H](NC(=O)CCNC(=O)COc2ccc3c(c2)CN(C(=O)[C@@H](NC(=O)c2cc4cc(C(F)(F)P(=O)(O)O)ccc4s2)C(C)(C)C)[C@H](C(=O)N2CCC[C@H](c4ccccc4)C2)C3)C(C)(C)C)cc1` [Compound 471, (difluoro(2-(((S)-1-((S)-7-(2-((3-(((S)-1-((2S,4R)-4-hydroxy-2-(((S)-1-(4-(4-methylthiazol-5-yl)phenyl)ethyl)carbamoyl)pyrrolidin-1-yl)-3,3-dimethyl-1-oxobutan-2-yl)amino)-3-oxopropyl)amino)-2-oxoethoxy)-3-((R)-3-phenylpiperidine-1-carbonyl)-3,4-dihydroisoquinolin-2(1H)-yl)-3,3-dimethyl-1-oxobutan-2-yl)carbamoyl)benzo[b]thiophen-5-yl)methyl)phosphonic acid] stands over 10 µM; under `Cc1ncsc1-c1ccc([C@H](C)NC(=O)[C@@H]2C[C@@H](O)CN2C(=O)[C@@H](NC(=O)CCCNC(=O)COc2ccc3c(c2)CN(C(=O)[C@@H](NC(=O)c2cc4cc(C(F)(F)P(=O)(O)O)ccc4s2)C(C)(C)C)[C@H](C(=O)N2CCC[C@H](c4ccccc4)C2)C3)C(C)(C)C)cc1` [Compound 472, (difluoro(2-(((S)-1-((S)-7-(2-((4-(((S)-1-((2S,4R)-4-hydroxy-2-(((S)-1-(4-(4-methylthiazol-5-yl)phenyl)ethyl)carbamoyl)pyrrolidin-1-yl)-3,3-dimethyl-1-oxobutan-2-yl)amino)-4-oxobutyl)amino)-2-oxoethoxy)-3-((R)-3-phenylpiperidine-1-carbonyl)-3,4-dihydroisoquinolin-2(1H)-yl)-3,3-dimethyl-1-oxobutan-2-yl)carbamoyl)benzo[b]thiophen-5-yl)methyl)phosphonic acid], over 10 µM.
